Reference: patent US20260102383A1, “LPAR1 Inhibitors” (AbbVie Inc., priority 2024, published 2026)

target: T1, human LPAR1 (Homo sapiens, UniProt Q92633); assay: Arrestin assay (Arrestin Reporter EDG2-bla U2OS), inhibition of LPA-stimulated signal; type: cell-based; details: TangoEDG2-bla U2OS cells expressing human LPAR1; 0.25 μM LPA; read-out: Arrestin Reporter EDG2-bla U2OS Human IC50
T1 construct: host or cells: TangoEDG2-bla U2OS cells
How it was run: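 TangoEDG2-bla U2OS cells (1×10^4/well, plated 18-20 h) were preincubated 1 h at 37 °C with compound (12-point, 3-fold, 10 μM to 0.00006 μM), then stimulated 3 h with 0.25 μM LPA final. LiveBLAzer FRET B/G 460/530 nm emission ratio gave % inhibition; IC50 from 4-parameter variable-slope fit.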

T1 sequence (Q92633 whole entry): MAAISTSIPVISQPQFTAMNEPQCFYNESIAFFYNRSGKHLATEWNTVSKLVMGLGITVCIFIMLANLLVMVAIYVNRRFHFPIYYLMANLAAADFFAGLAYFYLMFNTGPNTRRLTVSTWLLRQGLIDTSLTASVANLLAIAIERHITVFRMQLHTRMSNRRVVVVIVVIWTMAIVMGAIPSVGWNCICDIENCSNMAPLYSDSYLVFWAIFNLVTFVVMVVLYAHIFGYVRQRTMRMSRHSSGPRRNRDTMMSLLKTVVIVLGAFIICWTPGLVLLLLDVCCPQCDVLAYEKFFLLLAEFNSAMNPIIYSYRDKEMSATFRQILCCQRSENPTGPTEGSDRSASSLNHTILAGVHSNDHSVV

SMILES	IC50 [nM]
CC1(C)OCc2cnn(C3(C(=O)Nc4ccc(Cl)cc4OC(F)F)CCN(CC4(C(=O)O)CCOCC4)CC3)c21 [Compound 84, 4-[[4-[[4-chloro-2-(difluoromethoxy)phenyl]carbamoyl]-4-(6,6-dimethyl-4H-furo[3,4-c]pyrazol-1-yl)-1-piperidyl]methyl]tetrahydropyran-4-carboxylic acid]	57.2

same assay, conditions: TangoEDG2-bla U2OS cells expressing human LPAR1; 0.25 μM LPA; read-out: Arrestin Reporter EDG2-bla U2OS Human Merged IC50

SMILES	IC50 [nM]
CC(C)c1ccnn1C1(C(=O)Nc2ccc(Cl)cc2OC(F)F)CCN(CC2(C(=O)O)CCN(C(=O)C34CC(C)(C3)C4)CC2)CC1 [Compound 79, 4-[[4-[[4-chloro-2-(difluoromethoxy)phenyl]carbamoyl]-4-(5-isopropylpyrazol-1-yl)-1-piperidyl]methyl]-1-(3-metbylbicyclo[1.1.1]pentane-1-carbonyl)piperidine-4-carboxylic acid]	15.7
CC(C)c1ccnn1C1(C(=O)Nc2ccc(Cl)cc2OC(F)F)CCN(CC2(C(=O)O)CCN(C(=O)C34CC(C#N)(C3)C4)CC2)CC1 [Compound 80, 4-[[4-[[4-chloro-2-(difluoromethoxy)phenyl]carbamoyl]-4-(5-isopropylpyrazol-1-yl)-1-piperidyl]methyl]-1-(3-cyanobicyclo[1.1.1]pentane-1-carbonyl)piperidine-4-carboxylic acid]	129
COc1cnn(C2(C(=O)Nc3ccc(Cl)cc3OC(F)F)CCN(CC3(C(=O)O)CCOCC3)CC2)c1C(C)C [Compound 81, 4-[[4-[[4-chloro-2-(difluoromethoxy)phenyl]carbamoyl]-4-(5-isopropyl-4-methoxy-pyrazol-1-yl)-1-piperidyl]methyl]tetrahydropyran-4-carboxylic acid]	43
CC(C)CC(=O)N1CCC(CN2CCC(C(=O)Nc3ccc(Cl)cc3OC(F)F)(n3nccc3C(C)C)CC2)(C(=O)O)CC1 [Compound 82, 4-[[4-[[4-chloro-2-(difluoromethoxy)phenyl]carbamoyl]-4-(5-isopropylpyrazol-1-yl)-1-piperidyl]methyl]-1-(3-methylbutanoyl)piperidine-4-carboxylic acid]	21.9
CC(C)c1ccnn1C1(C(=O)Nc2ccc(Cl)cc2OC(F)F)CCN(CC(C)(C)C(=O)O)CC1 [Compound 83, 3-[4-[[4-chloro-2-(difluoromethoxy)phenyl]carbamoyl]-4-(5-isopropylpyrazol-1-yl)-1-piperidyl]-2,2-dimethyl-propanoic acid]	24.4
CCOCC1(C(=O)N2CCC(CN3CCC(C(=O)Nc4ccc(Cl)cc4OC(F)F)(n4nccc4C(C)C)CC3)(C(=O)O)CC2)CC1 [Compound 85, 4-[[4-[[4-chloro-2-(difluoromethoxy)phenyl]carbamoyl]-4-(5-isopropylpyrazol-1-yl)-1-piperidyl]methyl]-1-[1-(ethoxymethyl)cyclopropanecarbonyl] piperidine-4-carboxylic acid]	53.7
CC(C)c1ccnn1C1(C(=O)Nc2ccc(Cl)cc2OC(F)F)CCN(C[C@@H](C)C(=O)O)CC1 [Compound 86, (2R)-3-[4-[[4-chloro-2-(difluoromethoxy)phenyl]carbamoyl]-4-(5-isopropylpyrazol-1-yl)-1-piperidyl]-2-methyl-propanoic acid]	20.2
CC(C)c1ccnn1C1(C(=O)Nc2ccc(Cl)cc2OC(F)F)CCN(C[C@H](C)C(=O)O)CC1 [Compound 87, (2S)-3-[4-[[4-chloro-2-(difluoromethoxy)phenyl]carbamoyl]-4-(5-isopropylpyrazol-1-yl)-1-piperidyl]-2-methyl-propanoic acid]	32.3
CC(C)OC(=O)N1CCC(CN2CCC(C(=O)Nc3ccc(Cl)cc3OC(F)F)(n3nccc3C(C)C)CC2)(C(=O)O)CC1 [Compound 88]	13.3
CC(C)COC(=O)N1CCC(CN2CCC(C(=O)Nc3ccc(Cl)cc3OC(F)F)(n3nccc3C(C)C)CC2)(C(=O)O)CC1 [Compound 89, 4-[[4-[[4-chloro-2-(difluoromethoxy)phenyl]carbamoyl]-4-(5-isopropylpyrazol-1-yl)-1-piperidyl]methyl]-1-isobutoxycarbonyl-piperidine-4-carboxylic acid]	5.93
CC(C)c1ccnn1C1(C(=O)Nc2ccc(Cl)cc2OC(F)F)CCN(CC2(C(=O)O)CCN(C(=O)OCC(C)(C)C)CC2)CC1 [Compound 90, 4-[[4-[[4-chloro-2-(difluoromethoxy)phenyl]carbamoyl]-4-(5-isopropylpyrazol-1-yl)-1-piperidyl]methyl]-1-(2,2-dimethylpropoxycarbonyl) piperidine-4-carboxylic acid]	5.54

Next, values leading:

IC50 [nM]	SMILES
23	CC1CCc2cnn(C3(C(=O)Nc4ccc(Cl)cc4OC(F)F)CCN(CC4(C(=O)O)CCOCC4)CC3)c21 (stereo not shown) [Compound 91, 4-[[4-[[4-chloro-2-(difluoromethoxy)phenyl]carbamoyl]-4-(6-methyl-5,6-dihydro-4H-cyclopenta[e]pyrazol-1-yl)-1-piperidyl]methy] tetrahydropyran-4-carboxylic acid]
119	CC(C)c1ccnn1C1(C(=O)Nc2ccc(Cl)cc2OC(F)F)CCN(CC2(C(=O)O)CCN(C(=O)C[C@H]3CCOC3)CC2)CC1 [Compound 92, 4-[[4-[[4-chloro-2-(difluoromethoxy)phenyl]carbamoyl]-4-(5-isopropylpyrazol-1-yl)-1-piperidyl]methyl]-1-[2-[(3R)-tetrahydrofuran-3-yl]acetyl]piperidine-4-carboxylic acid]
539	CC(C)c1ccnn1C1(C(=O)Nc2ccc(Cl)cc2OC(F)F)CCN(CC2(C(=O)O)CCN(C(=O)C[C@@H]3CCOC3)CC2)CC1 [Compound 93, 4-[[4-[[4-chloro-2-(difluoromethoxy)phenyl]carbamoyl]-4-(5-isopropylpyrazol-1-yl)-1-piperidyl]methyl]-1-[2-[(3S)-tetrahydrofuran-3-yl]acetyl]piperidine-4-carboxylic acid]
40.8	CC(C)c1ccnn1C1(C(=O)Nc2ccc(Cl)cc2OC(F)F)CCN([C@H]2C[C@@H](CC(=O)O)C2)CC1 [Compound 94, (1s,3s)-2-[3-[4-[[4-chloro-2-(difluoromethoxy)phenyl]carbamoyl]-4-(5-isopropylpyrazol-1-yl)-1-piperidyl]cyclobutyl] acetic acid]
23.4	CC(C)c1ccnn1C1(C(=O)Nc2ccc(Cl)cc2OC(F)F)CCN(C(=N)[C@@H]2C[C@@H]2C(=O)O)CC1 [Compound 96, (1S,2R)-2-[4-[[4-chloro-2-(difluoromethoxy)phenyl]carbamoyl]-4-(5-isopropylpyrazol-1-yl)piperidine-1-carboximidoyl] cyclopropanecarboxylic acid]
122	CCOC(=O)N1CC(CN2CCC(C(=O)Nc3ccc(Cl)cc3OC(F)F)(n3nccc3C(C)C)CC2)(C(=O)O)C1 [Compound 97, 3-[[4-[[4-chloro-2-(difluoromethoxy)phenyl]carbamoyl]-4-(5-isopropylpyrazol-1-yl)-1-piperidyl]methyl]-1-ethoxycarbonyl-azetidine-3-carboxylic acid]
121	CCC(=O)N1CCC(CN2CCC(C(=O)Nc3ccc(Cl)cc3OC(F)F)(n3ncc(OC)c3C(C)C)CC2)(C(=O)O)CC1 [Compound 98, 4-[[4-[[4-chloro-2-(difluoromethoxy)phenyl]carbamoyl]-4-(5-isopropyl-4-methoxy-pyrazol-1-yl)-1-piperidyl]methyl]-1-propanoyl-piperidine-4-carboxylic acid]
